Assay results as given in patent US20230012368A1 (Hoffmann-La Roche Inc., priority 2018, published 2023).
Where a name gives a salt, the structure may show the parent alone.

System: Acinetobacter baumannii ATCC 17978
Assay: Antimicrobial susceptibility testing: 90% growth inhibitory concentration (IC90) determination
Assay type: cell-based
Settings: 90% growth inhibitory concentration; Acinetobacter baumannii ATCC17978; Iso-Sensitest broth, OD 600 nm over 16h; read-out: ATCC17978 IC90
Method: Antimicrobial Susceptibility Testing:
90% Growth Inhibitory Concentration (IC90) Determination
The in vitro antimicrobial activity of the compounds was determined according to the following procedure:
The assay used a 10-points Iso-Sensitest broth medium to measure quantitatively the in vitro activity of the compounds against Acinetobacter baumannii ATCC 17978 and Acinetobacter baumannii ATCC 17961.
Stock compounds in DMSO were serially twofold diluted (e.g. range from 50 to 0.097 μM final concentration) in 384 wells microtiter plates and inoculated with 49 μl the bacterial suspension in Iso-Sensitest medium to have a final cell concentration of ˜5×10^(5) CFU/ml in a final volume/well of 50 ul/well. Microtiter plates were incubated at 35±2° C.
Bacterial cell growth was determined with the measurement of optical density at λ=600 nm each 20 minutes over a time course of 16h. Growth inhibition was calculated during the logarithmic growth of the bacterial cells with determination of the concentration inhibiting 50% (IC50) and 90% (IC90) of the growth.
Table 1 provides the 90% growth inhibitory concentrations (IC90) in micromoles per liter of the compounds of present invention obtained against the strain Acinetobacter baumannii ATCC17978 and Acinetobacter baumannii ATCC17961.

Row | Compound | IC90
1 | Cc1cc(Nc2nccn3c(-c4ccc(Cl)cc4)cnc23)ccc1C(=O)NCCCN [Example 236, N-(3-aminopropyl)-4-[[3-(4-chlorophenyl)imidazo[1,2-a]pyrazin-8-yl]amino]-2-methylbenzamide; hydrochloride] | 1400 nM

Same assay, conditions: Acinetobacter baumannii, ATCC17978, 16 h, 90% growth inhibitory concentration; Acinetobacter baumannii ATCC17978; Iso-Sensitest broth, OD 600 nm over 16h; read-out: ATCC17978 IC90

Row | Compound | IC90
2 | COc1ccc(-c2cnc3c(Nc4ccc(C(=O)N(C)Cc5ccncc5)c(C)c4)nccn23)cc1F [Example 73, 4-((3-(3-fluoro-4-methoxyphenyl)imidazo [1,2-a]pyrazin-8-yl)amino)-N,2-dimethyl-N-(pyridin-4-ylmethyl)benzamide] | 140 nM
3 | CCc1cc(Nc2nccn3c(-c4ccc(OC)c(F)c4F)cnc23)ccc1C(=O)NC(C)CNC(C)=N (stereo not drawn) [Example 169, 4-[[3-(2,3-difluoro-4-methoxyphenyl)imidazo[1,2-a]pyrazin-8-yl]amino]-N-[1-(ethanimidoylamino)propan-2-yl]-2-ethylbenzamide] | 70 nM
4 | COc1ccc(-c2cnc3c(Nc4ccc(C(=O)NCC5CNCCO5)c(Cl)c4)nccn23)cc1F (stereo not drawn) [Example 233, 2-chloro-4-[[3-(3-fluoro-4-methoxyphenyl)imidazo[1,2-a]pyrazin-8-yl]amino]-N-(morpholin-2-ylmethyl)benzamide; hydrochlo-ride] | 1300 nM
5 | CCc1cc(Nc2nccn3c(-c4ccc(OC(F)F)cc4)cnc23)ccc1C(=O)NC [Example 183, 4-[[3-[4-(difluoromethoxy)phenyl]im-idazo[1,2-a]pyrazin-8-yl]amino]-2-ethyl-N-methylbenzamide] | 190 nM
6 | COc1ccc(-c2cnc3c(Nc4ccc(C(=O)N(C)CCC5CCNCC5)c(C)c4)nccn23)c(F)c1F [Example 63, 4-((3-(2,3-difluoro-4-methoxyphenyl)imidazo [1,2-a]pyrazin-8-yl)amino)-N,2-dimethyl-N-(2-(piperidin-4-yl)ethyl)benzamide] | 90 nM
7 | COc1ccc(-c2cnc3c(Nc4ccc(C(=O)N(C)C)cc4)nccn23)c(F)c1F [Example 107, 4-[[3-(2,3-difluoro-4-methoxy-phenyl)imidazo[1,2-a]pyrazin-4-yl]amino]-N,N-dimethyl-benzamide] | 120 nM
8 | CNC(=O)c1ccc(Nc2nccn3c(-c4ccc(OC(F)F)cc4)cnc23)cc1[N+](=O)[O-] [Example 54, 4-((3-(4-(difluoromethoxy)phenyl)imidazo[1,2-a]pyrazin-8-yl)amino)-N-methyl-2-nitrobenzamide] | 820 nM
9 | COc1ccc(-c2cnc3c(Nc4ccc(C(=O)N(C)Cc5cccnc5)c(C)c4)nccn23)cc1F [Example 38, 4-[[3-(3-fiuoro-4-methoxy-phenyl)imidazo[1,2-a]pyrazin-8-yl]amino]-N,2-dimethyl-N-(3-pyridylmethyl) benzamide] | 190 nM
10 | CCc1cc(Nc2nccn3c(-c4ccc(OC)c(F)c4F)cnc23)ccc1C(=O)NCCNC(=O)[C@H](N)CCCNC(=N)N [Example 125, N-[2-[[(2R)-2-amino-5-guanidino-pentanoyl]amino]ethyl]-4-[[3-(2,3-difluoro-4-methoxy-phenyl)imidazo[1,2-a]pyrazin-8-yl]amino]-2-ethyl-benzamide formate] | 120 nM
11 | CCc1cc(Nc2nccn3c(-c4ccc(OC(F)F)c(F)c4F)cnc23)ccc1C(=O)NCCCN1CCCC1 [Example 95, 4-((3-(4-(difluoromethoxy)-2,3-difluorophenyl)imidazo [1,2-a]pyrazin-8-yl)amino)-2-ethyl-N-(3-(pyrrolidin-1-yl)propyl)benzamide] | 190 nM
12 | CCc1cc(Nc2nccn3c(-c4ccc(OCC#N)c(F)c4F)cnc23)ccc1C(=O)NCCNC(=O)[C@@H](N)[C@@H](C)O [Example 138, N-[2-[[(2S,3R)-2-amino-3-hydroxy-butanoyl]amino]ethyl]-4-[[3-[4-(cyanomethoxy)-2,3-difluoro-phenyl]imidazo[1,2-a]pyrazin-8-yl]amino]-2-ethyl-benzamide formate] | 100 nM
13 | O=C(NCc1ccccn1)c1ccc(Nc2nccn3c(-c4ccc(OC(F)F)cc4)cnc23)cc1Cl [Example 111, 2-chloro-4-((3-(4-(difluoromethoxy)phenyl)imidazo[1,2-a]pyrazin-8-yl)amino)-N-(pyridin-2-ylmethyl)benzamide] | 2100 nM
14 | COc1ccc(-c2cnc3c(Nc4ccc(C(=O)NCC5CCN(C(=N)N)CC5)c(C)c4)nccn23)cc1Cl [Example 82, N-((1-carbamimidoyl-piperidin-4-yl)methyl)-4-((3-(3-chloro-4-methoxyphenyl)imidazo [1,2-a]pyrazin-8-yl)amino)-2-methylbenzamide] | 270 nM
15 | COc1ccc(-c2cnc3c(Nc4ccc(C(=O)N(C)CC(=O)N5CCC(CN(C)C)C5)c(C)c4)nccn23)cc1F (stereo not drawn) [Example 9, N-[2-[3-[(dimethylamino)methyl]pyrrolidin-1-yl]-2-oxo-ethyl]-4-[[3-(3-fluoro-4-methoxy-phenyl)imidazo[1,2-a]pyrazin-8-yl]amino]-N,2-dimethyl-benzamide] | 840 nM
16 | COc1ccc(-c2cnc3c(Nc4ccc(C(=O)N(C)CCc5ncc[nH]5)c(C)c4)nccn23)cc1F [Example 112, 4-[[3-(3-fluoro-4-methoxy-phenyl)imidazo[1,2-a]pyrazin-8-yl]amino]-N-[2-(1H-imidazol-2-yl)ethyl]-N,2-dimethyl-benzamide] | 960 nM

Further lines, results first:

Row | IC90 | Compound
17 | 490 nM | CCc1cc(Nc2nccn3c(-c4ccc(Oc5ncccn5)c(F)c4F)cnc23)ccc1C(=O)NCC1CCN(CC2CCNC2)CC1 (stereo not drawn) [Example 549, 4-((3-(2,3-difluoro-4-(pyrimidin-2-yloxy)phenyl)imidazo[1,2-a]pyrazin-8-yl)amino)-2-ethyl-N-((1-(pyrrolidin-3-ylmethyl)piperidin-4-yl)methyl)benzamide formate]
18 | 1900 nM | Cc1cc(Nc2nccn3c(-c4ccc(OC(F)F)cc4)cnc23)ccc1C(=O)N(C)CCN1C[C@@H](C)O[C@@H](C)C1 [Example 256, 4-[[3-[4-(difluoromethoxy)phenyl]im-idazo[1,2-a]pyrazin-8-yl]amino]-N,2-dimethyl-N-[2-[rac-(2R,6S)-2,6-dimethylmorpholin-4-yl]ethyl]benzamide]
19 | 410 nM | CCc1cc(Nc2nccn3c(-c4ccc(OC(F)F)c(F)c4F)cnc23)ccc1C(=O)NCCCO[C@@H]1O[C@H](CO)[C@@H](O)[C@H](O)[C@H]1O [Example 442, 4-((3-(4-(difluoromethoxy)-2,3-difluorophenyl)imidazo[1,2-a]pyrazin-8-yl)amino)-2-ethyl-N-(3-(((2R,3R,4S,5S,6R)-3,4,5-trihydroxy-6-(hydroxymethyl)tetrahydro-2H-pyran-2-l)oxy)propyl)benzamide]
20 | 500 nM | CCc1cc(Nc2nccn3c(-c4ccc(OC)c(F)c4F)cnc23)ccc1C(=O)NCCNC(=O)CCCNCCCN [Example 564, N-(2-(4-((3-aminopropyl)amino)butanami-do)ethyl)-4-((3-(2,3-difluoro-4-methoxyphenyl)imidazo[1,2-a]pyrazin-8-yl)amino)-2-ethylbenzamide trihydrochloride]
21 | 720 nM | CCc1cc(Nc2nccn3c(-c4ccc(Oc5ccccn5)c(F)c4F)cnc23)ccc1C(=O)NCCNC(=O)[C@@H](N)CCNC(=N)N [Example 420, N-[2-[[(2S)-2-amino-4-guanidino-butanoyl]amino]ethyl]-4-[[3-[2,3-difluoro-4-(2-pyridyloxy)phenyl]imidazo [1,2-a]pyrazin-8-yl]amino]-2-ethyl-benzamide; formic acid]
22 | 120 nM | CCc1cc(Nc2nccn3c(-c4ccc(OC)c(F)c4F)cnc23)ccc1C(=O)NCCNC(=O)CN [Example 368, N-[2-[(2-aminoacetyl)amino]ethyl]-4-[[3-(2,3-difluoro-4-methoxyphenyl)imidazo[1,2-a]pyrazin-8-yl]amino]-2-ethylbenzamide]
23 | 1300 nM | Cc1cc(Nc2nccn3c(-c4ccc(OC(F)F)cc4)cnc23)ccc1C(=O)N(C)CCC1CCN(S(C)(=O)=O)CC1 [Example 234, 4-[[3-[4-(difluoromethoxy)phenyl]im-idazo[1,2-a]pyrazin-8-yl]amino]-N,2-dimethyl-N-[2-(1-methylsulfonylpiperidin-4-yl)ethyl]benzamide]
24 | 390 nM | CNCCCN1CCc2cc(Nc3nccn4c(-c5ccc(OC)c(F)c5F)cnc34)ccc2C1=O [Example 568, 6-[[3-(2,3-difluoro-4-methoxy-phenyl)imidazo[1,2-a]pyrazin-8-yl]amino]-2-[3-(methylamino)propyl]-3,4-dihydroisoquinolin-1-one]
25 | 820 nM | COc1ccc(-c2cnc3c(Nc4ccc(C(=O)N[C@H](CO)Cc5cnc[nH]5)c(C)c4)nccn23)cc1F [Example 383, 4-[[3-(3-fluoro-4-methoxyphenyl)imidazo[1,2-a]pyrazin-8-yl]amino]-N-[(2S)-1-hydroxy-3-(1H-imidazol-5-yl)propan-2-yl]-2-methylbenzamide]
26 | 1800 nM | C=Cc1cc(Nc2nccn3c(-c4ccc(OC(F)F)cc4)cnc23)ccc1C(=O)NCCN1CCNCC1 [Example 238, 4-[[3-[4-(difluoromethoxy)phenyl]im-idazo[1,2-a]pyrazin-8-yl]amino]-2-ethenyl-N-(2-piperazin-1-ylethyl)benzamide; hydrochlo-ride]
27 | 47 nM | N#CCOc1ccc(-c2cnc3c(Nc4ccc(C(=O)NCCCCN)c(Cl)c4)nccn23)c(F)c1F [Example 519, N-(4-aminobutyl)-2-chloro-4-((3-(4-(cyanomethoxy)-2,3-difluorophenyl)imidazo[1,2-a]pyrazin-8-yl)amino)benzamide]
